Assay results taken from ChEMBL document CHEMBL1909046, “DrugMatrix in vitro pharmacology data”.

Tests used:
Neutrophil elastase = molecular target: T1, Neutrophil elastase (Homo sapiens, UniProt P08246); format: tissue-based;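 note: inhibition of neutrophil elastase enzyme activity, measured with a p-nitroanilide-linked peptide substrate; in other assays of this panel Not Active means under 50% inhibition at 10 µM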
T1 sequence (P08246 whole entry): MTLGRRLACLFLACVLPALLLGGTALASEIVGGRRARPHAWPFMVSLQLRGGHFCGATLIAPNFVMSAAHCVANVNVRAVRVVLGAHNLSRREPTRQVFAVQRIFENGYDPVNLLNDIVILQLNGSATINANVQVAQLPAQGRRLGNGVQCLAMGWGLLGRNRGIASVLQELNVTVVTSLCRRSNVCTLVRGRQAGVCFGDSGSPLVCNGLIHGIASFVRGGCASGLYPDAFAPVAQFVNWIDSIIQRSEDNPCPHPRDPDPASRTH

Carbonic anhydrase 2 = Carbonic anhydrase 2 (Homo sapiens, UniProt P00918); assay: DRUGMATRIX: Carbonic Anhydrase II enzyme inhibition (substrate: 4-Nitrophenyl acetate (4-NPA)); format: tissue-based, Erythrocyte; details: Not Active = under 50% inhibition at 10 µM
[1] = DRUGMATRIX: Phosphodiesterase PDE3 enzyme inhibition (substrate: [3H]cAMP + cAMP); format: tissue-based, Homo sapiens; details: platelet, Not Active = under 50% inhibition at 10 µM
Estrogen receptor beta = Estrogen receptor beta (Homo sapiens, UniProt Q92731); details: sf9; note: in other assays of this panel Not Active means under 50% inhibition at 10 µM
[2] = DRUGMATRIX: Phorbol Ester radioligand binding (ligand: [3H] PDBu); format: cell membranes, Mus musculus, ICR, Brain, Membrane; details: Not Active = under 50% inhibition at 10 µM
[3] = molecular target: T2, Cholecystokinin receptor type A (Homo sapiens, UniProt P32238); format: cell membranes, Membrane; details: 1321-n1; note: in other assays of this panel Not Active means under 50% inhibition at 10 µM
T2 sequence (P32238 whole entry): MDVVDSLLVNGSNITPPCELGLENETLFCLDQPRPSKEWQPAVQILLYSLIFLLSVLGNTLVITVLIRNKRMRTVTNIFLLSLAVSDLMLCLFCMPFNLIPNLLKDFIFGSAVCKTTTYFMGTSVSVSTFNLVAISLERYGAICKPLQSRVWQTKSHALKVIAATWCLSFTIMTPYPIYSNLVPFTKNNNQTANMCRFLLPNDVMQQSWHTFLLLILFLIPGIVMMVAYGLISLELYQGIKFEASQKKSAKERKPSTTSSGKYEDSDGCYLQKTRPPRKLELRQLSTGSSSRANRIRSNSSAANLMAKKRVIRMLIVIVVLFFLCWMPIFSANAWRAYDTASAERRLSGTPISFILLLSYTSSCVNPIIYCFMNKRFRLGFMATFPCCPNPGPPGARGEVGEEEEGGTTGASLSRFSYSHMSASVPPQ

[4] = DRUGMATRIX: Purinergic P2X radioligand binding (ligand: [3H] alpha, beta-Methylene-ATP); format: cell membranes, Oryctolagus cuniculus, New Zealand albino, Urinary bladder, Membrane; details: Not Active = under 50% inhibition at 10 µM
[5] = molecular target: T3, Amine oxidase [flavin-containing] A (Homo sapiens, UniProt P21397); assay: DRUGMATRIX: Monoamine Oxidase MAO-A enzyme inhibition (substrate: Kynuramine); design: species or system BTI-TN-5B1-4; details: bti-tn-5b1-4; Not Active = under 50% inhibition at 10 µM
T3 sequence (P21397 whole entry): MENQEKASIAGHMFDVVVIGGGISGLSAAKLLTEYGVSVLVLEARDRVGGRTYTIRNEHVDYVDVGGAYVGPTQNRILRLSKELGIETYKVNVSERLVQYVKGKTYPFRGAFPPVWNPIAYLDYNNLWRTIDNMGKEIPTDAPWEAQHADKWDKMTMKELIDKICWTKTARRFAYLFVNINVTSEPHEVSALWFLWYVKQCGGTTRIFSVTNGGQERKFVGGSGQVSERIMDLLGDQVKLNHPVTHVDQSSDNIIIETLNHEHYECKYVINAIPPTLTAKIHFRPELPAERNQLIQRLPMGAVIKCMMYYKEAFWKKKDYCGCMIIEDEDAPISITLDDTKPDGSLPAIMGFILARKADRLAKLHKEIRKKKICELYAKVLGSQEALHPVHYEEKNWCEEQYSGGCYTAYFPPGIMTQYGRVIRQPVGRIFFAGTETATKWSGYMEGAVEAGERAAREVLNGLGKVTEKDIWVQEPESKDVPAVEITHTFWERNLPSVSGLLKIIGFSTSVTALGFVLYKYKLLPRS

[6] = molecular target: T4, Cysteinyl leukotriene receptor 1 (Homo sapiens, UniProt Q9Y271); format: cell membranes, CHO-K1, Membrane; details: cho-k1; note: in other assays of this panel Not Active means under 50% inhibition at 10 µM
T4 sequence (Q9Y271 whole entry): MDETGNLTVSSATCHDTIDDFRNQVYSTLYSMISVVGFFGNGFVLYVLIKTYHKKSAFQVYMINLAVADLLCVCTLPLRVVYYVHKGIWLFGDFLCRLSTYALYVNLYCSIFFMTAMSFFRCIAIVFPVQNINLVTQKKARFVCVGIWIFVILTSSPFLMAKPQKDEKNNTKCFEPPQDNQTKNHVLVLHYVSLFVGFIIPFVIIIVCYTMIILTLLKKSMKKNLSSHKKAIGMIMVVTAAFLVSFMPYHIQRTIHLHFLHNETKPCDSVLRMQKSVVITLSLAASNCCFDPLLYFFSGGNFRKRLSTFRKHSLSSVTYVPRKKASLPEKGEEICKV

[7] = DRUGMATRIX: Interleukin IL-1 radioligand binding (ligand: [125I] interleukin 1beta); format: cell membranes, Membrane; details: nih3t3; Not Active = under 50% inhibition at 10 µM
[8] = DRUGMATRIX: Glutamate, NMDA, Phencyclidine radioligand binding (ligand: [3H] TCP); format: cell membranes, Rattus norvegicus, Wistar, Cerebral cortex, Membrane; details: Not Active = under 50% inhibition at 10 µM
[9] = molecular target: T5, Alpha-2A adrenergic receptor (Homo sapiens, UniProt P08913); format: cell membranes, Sf9, Membrane; note: in other assays of this panel Not Active means under 50% inhibition at 10 µM
T5 sequence (P08913 whole entry): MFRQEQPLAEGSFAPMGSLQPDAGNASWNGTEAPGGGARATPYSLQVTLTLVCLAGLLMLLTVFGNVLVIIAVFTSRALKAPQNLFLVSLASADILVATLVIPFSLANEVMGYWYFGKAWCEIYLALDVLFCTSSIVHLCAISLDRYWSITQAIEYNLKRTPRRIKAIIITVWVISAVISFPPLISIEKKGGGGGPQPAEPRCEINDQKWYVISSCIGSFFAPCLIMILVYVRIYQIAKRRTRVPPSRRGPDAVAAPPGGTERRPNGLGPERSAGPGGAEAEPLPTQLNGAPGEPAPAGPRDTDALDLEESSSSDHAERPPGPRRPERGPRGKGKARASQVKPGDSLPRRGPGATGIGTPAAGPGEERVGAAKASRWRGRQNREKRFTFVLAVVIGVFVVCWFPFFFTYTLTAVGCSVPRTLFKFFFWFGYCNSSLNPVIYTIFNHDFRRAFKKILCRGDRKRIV

D(1A) dopamine receptor = D(1A) dopamine receptor (Homo sapiens, UniProt P21728); assay: DRUGMATRIX: Dopamine D1 radioligand binding (ligand: [3H] SCH-23390); format: cell membranes, CHO, Membrane; details: cho; Not Active = under 50% inhibition at 10 µM
[10] = DRUGMATRIX: Platelet-Derived Growth Factor (PDGF) radioligand binding (ligand: [125I] PDGF); format: cell-based; details: nih3t3; Not Active = under 50% inhibition at 10 µM

Estrogen receptor beta, sequence (Q92731 whole entry): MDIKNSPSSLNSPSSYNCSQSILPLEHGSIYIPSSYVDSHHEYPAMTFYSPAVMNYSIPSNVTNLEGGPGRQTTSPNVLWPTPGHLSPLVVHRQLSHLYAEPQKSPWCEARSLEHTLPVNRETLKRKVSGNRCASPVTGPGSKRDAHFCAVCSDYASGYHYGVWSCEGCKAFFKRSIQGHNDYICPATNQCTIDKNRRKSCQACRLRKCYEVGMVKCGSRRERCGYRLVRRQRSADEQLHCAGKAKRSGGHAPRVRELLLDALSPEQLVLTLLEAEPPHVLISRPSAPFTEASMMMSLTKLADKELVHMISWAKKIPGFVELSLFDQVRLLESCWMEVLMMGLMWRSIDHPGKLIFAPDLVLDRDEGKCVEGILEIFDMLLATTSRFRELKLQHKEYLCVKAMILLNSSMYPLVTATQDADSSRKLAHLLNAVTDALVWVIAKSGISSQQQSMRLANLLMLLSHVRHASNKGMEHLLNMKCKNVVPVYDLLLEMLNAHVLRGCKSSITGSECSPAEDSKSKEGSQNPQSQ
D(1A) dopamine receptor, sequence (P21728 whole entry): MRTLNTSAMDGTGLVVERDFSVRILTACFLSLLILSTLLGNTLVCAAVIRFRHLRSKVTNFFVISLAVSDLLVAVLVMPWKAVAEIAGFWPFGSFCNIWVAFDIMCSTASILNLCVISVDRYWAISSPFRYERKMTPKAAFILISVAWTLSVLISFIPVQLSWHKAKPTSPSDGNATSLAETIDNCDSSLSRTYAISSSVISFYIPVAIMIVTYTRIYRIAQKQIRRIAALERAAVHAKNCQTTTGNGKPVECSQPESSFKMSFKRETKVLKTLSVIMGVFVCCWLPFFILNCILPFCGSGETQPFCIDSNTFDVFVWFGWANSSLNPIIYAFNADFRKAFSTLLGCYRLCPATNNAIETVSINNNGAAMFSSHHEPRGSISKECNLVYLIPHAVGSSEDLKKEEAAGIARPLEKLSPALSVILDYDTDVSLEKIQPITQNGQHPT

SMILES	IC50 (Neutrophil elastase)	IC50 [1]	Ki [1]	IC50 (Estrogen receptor beta)	IC50 [2]	Ki [2]	IC50 [3]	IC50 [4]	Ki [4]	IC50 [5]	IC50 [6]	IC50 [7]	Ki [7]	IC50 [8]	Ki [8]	IC50 ([9]; sf9)	IC50 (D(1A) dopamine receptor)	IC50 [10]	Ki [10]	IC50 (Carbonic anhydrase 2; erythrocyte)	further results
CCCC[C@@H](CC)COC(=O)c1ccccc1C(=O)OC[C@@H](CC)CCCC [BIS(2-ETHYLHEXYL)PHTHALATE]	Not Active	Not Active	Not Active	Not Active	Not Active	Not Active	Not Active	Not Active	Not Active	Not Active	Not Active	Not Active	Not Active	Not Active	Not Active	Not Active	Not Active	Not Active	Not Active	–	IC50 (Carbonic anhydrase 2; read-out: IC50): 66.9 µM
Oc1c(Cl)cc(Cl)cc1Sc1cc(Cl)cc(Cl)c1O [BITHIONOL]	Not Active	–	–	Not Active	Not Active	Not Active	Not Active	Not Active	Not Active	Not Active	Not Active	Not Active	Not Active	Not Active	Not Active	–	Not Active	Not Active	Not Active	Not Active	IC50 ([1]; read-out: IC50): 2.72 µM; IC50 ([9]; read-out: IC50): 3.82 µM; Ki ([9]; read-out: Ki): 1.43 µM
Brc1ccccc1 [BROMOBENZENE]	Not Active	Not Active	Not Active	Not Active	Not Active	Not Active	Not Active	Not Active	Not Active	Not Active	Not Active	Not Active	Not Active	Not Active	Not Active	Not Active	Not Active	Not Active	Not Active	Not Active	–
CCCCOC(=O)c1ccc(N)cc1 [BUTAMBEN]	Not Active	Not Active	Not Active	Not Active	Not Active	Not Active	Not Active	Not Active	Not Active	Not Active	Not Active	Not Active	Not Active	Not Active	Not Active	Not Active	Not Active	Not Active	Not Active	Not Active	–
CC[C@@]1(O)C(=O)OCc2c1cc1n(c2=O)Cc2cc3ccccc3nc2-1 [CAMPTOTHECIN]	Not Active	Not Active	Not Active	Not Active	Not Active	Not Active	Not Active	Not Active	Not Active	Not Active	Not Active	Not Active	Not Active	Not Active	Not Active	Not Active	Not Active	Not Active	Not Active	Not Active	–
